Data taken from the NIST ThermoML archive (doi:10.1016/j.tca.2019.178375).
Numbers after ± are expanded uncertainties.

How the values were obtained:
[1] = Molar enthalpy of transition or fusion; settings: Crystal; DSC
[2] = Crystal; DTA

Molar enthalpy of transition or fusion [1]: 7.63 ± 0.478 kcal/mol
Normal melting temperature [2]: 227.00 ± 4 °C
Compound: Cl.c1ccc([C@H]2CN3CCSC3=N2)cc1 [(-)-Levamisole hydrochloride]
